Assay results as given in US8841319B2, “Use of 3-(indolyl)- or 3-(azaindolyl)-4-arylmaleimide derivatives in leukemia management” (Johannes Gutenberg-Universitat Mainz, priority 2007, dated 2014).

Columns and labels:
[1] = system: murine 32D-FLT3-ITD cells; assay: Apoptosis assay by cell cycle analysis (sub-G1 fraction) in 32D-FLT3-ITD cells; assay type: cell-based; settings: 48 h incubation
Text: A human FLT3-ITD construct, subcloned into the pAL expression vector under control of the 5′ long terminal repeat (LTR) of the Moloney murine sarcoma virus (MoMSV) and the plasmid pMAM/BSD were used as previously described (Mizuki, M., Schwable, J., Steur, C., Choudhary, C., Agrawal, S., Sargin, B., Steffen, B., Matsumura, I., Kanakura, Y., Bohmer, F. D., Muller-Tidow, C., Berdel, W. E. & Serve, H. (2003) Suppression of myeloid transcription factors and induction of STAT response genes by AML-specific FLT3 mutations. Blood, 101, 3164-3173). The N676K point mutation was introduced into this FLT3-ITD construct (Medigenomix Martinsried, Germany). […]
The induction of apoptosis in murine 32D-FLT3-ITD cells measured by sub-G1-fraction in cell cycle analysis upon 48 h incubation with two 3-(indolyl)- and 3-(azaindolyl)-4-phenylmaleimide derivatives (DHF125 and DHF150) was evaluated.

FLT3 = assay: Immunoprecipitation of FLT3 (anti-FLT3 and anti-P-Tyr); assay type: cell-based
FLT3-ITD-positive cells = assay: Drug combination with chemotherapy, Chou-Talalay plot (CompuSyn); assay type: cell-based
Experimental: The chemotherapeutic agents cytarabine and daunorubicine were dissolved and diluted in aqua dest. Equivalent doses of DMSO were added when used for combination treatment.
For definition of synergism and/or antagonism in drug combinations we used the CompuSyn™ software (Chou, T C and Martin, N; ComboSyn, Inc. Paramus, N. J., USA) as previously described (Chou, T. C. (2006) Theoretical basis, experimental design, and computerized simulation of synergism and antagonism in drug combination studies. Pharmacol Rev, 58, 621-681).

FLT3-WT cells = assay: Apoptosis assay by cell cycle analysis (sub-G1 fraction) in FLT3-WT cells; assay type: cell-based; settings: up to 10 μM, 48 h incubation
STAT5, ERK and AKT = assay: Western blotting of downstream kinase targets; assay type: cell-based
Experimental: 2×10^6 cells were incubated in the presence of various inhibitor concentrations alone and in combination for 1 hour at 37° C. Preparation of cellular lysates was performed as described previously (Kindler, T., Breitenbuecher, F., Kasper, S., Estey, E., Giles, F., Feldman, E., Ehninger, G., Schiller, G., Klimek, V., Nimer, S. D., Gratwohl, A., Choudhary, C. R., Mueller-Tidow, C., Serve, H., Gschaidmeier, H., Cohen, P. S., Huber, C. & Fischer, T. (2005) Identification of a novel activating mutation (Y842C) within the activation loop of FLT3 in patients with acute myeloid leukemia (AML). Blood, 105, 335-340). Protein lysates were subjected to SDS polyacrylamid gel electrophoresis (SDS-PAGE) and blotted onto nitrocellulose membrane (Amersham, Freiburg, Germany) as previously described (Kindler, et al 2003). The following antibodies were used: anti-phospho-FLT3, anti-phospho-STAT5 (pTyr694/699), anti-phospho AKT (pSer473), anti-phospho ERK (pThr202/pTyr204) (all Cell Signaling Technology™, Frankfurt, Germany), anti-FLT3, anti-AKT and anti-STAT5 (Santa Cruz, Heidelberg, Germany), and anti-β-Actin (ICN). Densitometric analysis was performed using the program Gel-Pro Analyzer®.

FLT3-kinase = target: T1, FLT3-kinase (Homo sapiens, UniProt P36888); assay: FLT3-kinase assay at two ATP concentrations; assay type: biochemical
T1 sequence (P36888 27-993): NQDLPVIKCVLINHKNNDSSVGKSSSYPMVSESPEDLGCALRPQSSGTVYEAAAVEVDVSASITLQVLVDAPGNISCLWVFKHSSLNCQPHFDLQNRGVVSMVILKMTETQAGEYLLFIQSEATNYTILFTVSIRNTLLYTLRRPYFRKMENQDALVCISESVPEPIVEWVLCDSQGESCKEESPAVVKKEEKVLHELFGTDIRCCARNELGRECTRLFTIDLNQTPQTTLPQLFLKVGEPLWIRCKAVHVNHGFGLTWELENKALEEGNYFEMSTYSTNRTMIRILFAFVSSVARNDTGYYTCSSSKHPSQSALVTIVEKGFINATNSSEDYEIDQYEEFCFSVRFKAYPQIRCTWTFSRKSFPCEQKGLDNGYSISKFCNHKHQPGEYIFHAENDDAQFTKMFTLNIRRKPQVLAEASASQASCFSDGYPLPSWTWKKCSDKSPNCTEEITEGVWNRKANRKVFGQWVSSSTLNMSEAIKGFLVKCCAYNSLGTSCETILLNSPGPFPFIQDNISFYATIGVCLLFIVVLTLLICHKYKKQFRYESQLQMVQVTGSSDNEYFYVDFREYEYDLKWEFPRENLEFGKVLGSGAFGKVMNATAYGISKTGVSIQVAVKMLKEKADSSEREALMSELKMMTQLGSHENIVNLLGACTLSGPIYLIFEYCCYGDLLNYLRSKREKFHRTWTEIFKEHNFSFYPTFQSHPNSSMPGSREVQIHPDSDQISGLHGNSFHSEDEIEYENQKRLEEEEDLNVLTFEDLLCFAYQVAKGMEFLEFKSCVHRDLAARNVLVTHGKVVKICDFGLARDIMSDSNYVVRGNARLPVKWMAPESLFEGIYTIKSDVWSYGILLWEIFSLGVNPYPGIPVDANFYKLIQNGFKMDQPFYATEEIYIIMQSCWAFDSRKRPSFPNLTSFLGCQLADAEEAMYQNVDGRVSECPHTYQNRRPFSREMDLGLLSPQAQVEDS

[2] = system: primary AML blasts harboring the FLT3-ITD mutation; assay: Apoptosis (sub-G1 fraction, FACS) in primary AML blasts; assay type: cell-based, human; settings: primary AML blasts with FLT3-ITD mutation, 72 h incubation
Experimental: Transfected murine 32D cells (1×10^5 cells/well) were incubated in 2 ml RPMI medium supplemented with 10% FCS with different inhibitor concentrations for 48 hours at 37° C. Primary human cells (2×10^5 cells/well) were incubated for 72 hours at 37° C. After incubation, cells were washed with ice cold PBS, pelleted and mixed with 300 μl of propidium-iodide-buffer (containing 50 μg/ml PI in 0.1% sodium citrate plus 0.1% Triton X 100, Sigma) for 30 minutes at 4° C. Cell cycle analysis was performed as described previously (Nicoletti, I., Migliorati, G., Pagliacci, M. C., Grignani, F. & Riccardi, C. (1991) A rapid and simple method for measuring thymocyte apoptosis by propidium iodide staining and flow cytometry. J Immunol Methods, 139, 271-279) using a FACSCanto™ flow cytometer (BD Biosciences, Heidelberg, Germany).
BM- and PB-samples with heparin as anticoagulant were obtained from AML patients or donors with no evidence of malignant bone marrow infiltration after informed consent in a study approved by the local ethics committee. Mononuclear cells (MNC) were isolated immediately by means of Ficoll-Hypaque (Seromed, Berlin, Germany) density gradient centrifugation. […]
Primary AML blasts at primary diagnosis were incubated for 72 h with both 3-(indolyl)- and 3-(azaindolyl)-4-phenylmaleimide derivatives. Induction of apoptosis was measured by sub-G1-fraction in FACS analysis. […]

[3] = system: non-malignant bone marrow cells; assay: Colony assay of non-malignant bone marrow cells; settings: day 10
Experimental: Bone-marrow MNCs were isolated as indicated above. Bone marrow samples were obtained from patients in CR after NHL or AML treatment or without evidence of any malignant bone marrow infiltration. 1×10^5 cells were plated in 1.1 ml Methocult™ (GF H4534) “Complete” Methylcellulose Medium with recombinant cytokines (StemCell Technologies, Vancouver, Canada) and incubated for 10 days at 37° C. in duplicate. Colony formation was counted on day 10.

| Structure (SMILES) | sub-G1-cell fraction (induction of apoptosis) [1] | phosphorylation of FLT3 (FLT3) | effect in combination with cytarabine (FLT3-ITD-positive cells) | effect in combination with daunorubicine (FLT3-ITD-positive cells) | induction of apoptosis (FLT3-WT cells) | phosphorylation of downstream-targets STAT5, ERK and AKT (STAT5, ERK and AKT) | inhibition of FLT3-kinase (FLT3-kinase) | induction of apoptosis, percentage of apoptotic cells on top of ground apoptosis [2] | colony formation ([3]; 10 μM) | reduction in colony formation ([3]; up to 5 μM) |
| --- | --- | --- | --- | --- | --- | --- | --- | --- | --- | --- |
| COc1cc(C2=C(c3c[nH]c4ccccc34)C(=O)NC2=O)cc(OC)c1OC [DHF125, 3-(Indole-3-yl)-4-(3,4,5-trimethoxyphenyl)-1H-pyrrole-2,5-dione] | statistically very significant dose-dependent increase | dephosphorylation | synergistic effects | synergistic effects | No significant induction of apoptosis | dephosphorylation | ATP competitive inhibition | 10-17% | – | – |
| COc1cc(C2=C(c3c[nH]c4ncccc34)C(=O)NC2=O)cc(OC)c1OC [DHF150, 3-(7-Azaindol-3-yl)-4-(3,4,5-trimethoxyphenyl)-1H-pyrrole-2,5-dione] | statistically very significant dose-dependent increase | dephosphorylation | synergistic effects | synergistic effects | No significant induction of apoptosis | dephosphorylation | ATP competitive inhibition | 17-28% | reduced to a minimum | no significant reduction |
